Laboratory results published in PMC7211198, “Phase 1b study of a small molecule antagonist of human chemokine (C-C motif) receptor 2 (PF-04136309) in combination with nab-paclitaxel/gemcitabine in first-line treatment of metastatic pancreatic ductal adenocarcinoma” (Investigational New Drugs, 2019).

Experiment: Safety and tolerability (TEAEs, SAEs, DLTs, RP2D) in phase Ib study
Format: in vivo, human
Conditions: 500 mg BID + nab-P/Gem
From the text: Safety assessments included collection of adverse events (AEs), serious AEs (SAEs), vital signs and physical examination, electrocardiogram (12-lead), laboratory assessments, including pregnancy test, and verification of concomitant treatments. A patient was considered as DLT-evaluable if the patient experienced a DLT or if otherwise, in the absence of a DLT, the patient received at least 85% of the planned doses of each study drug in the first 28-day cycle. DLTs were defined as any of the following events occurring in the first cycle of treatment (days 1 through 28) and attributed (i.e., judged to be at least possibly related) to the combination of PF-04136309 plus nab-paclitaxel/gemcitabine, where relationship with the combination could not be ruled out. DLTs were hematologic events of grade 4 neutropenia lasting >5 days; febrile neutropenia; grade ≥ 3 neutropenic infection; grade ≥ 3 thrombocytopenia with grade ≥ 2 bleeding; grade 4 thrombocytopenia; and nonhematologic events of grade 3 toxicities. Exceptions included nausea and vomiting responding to prophylaxis and/or treatment and lasting <7 days from each chemotherapy infusion period; diarrhea responding to treatment and lasting <7 days; grade 3 fatigue lasting <7 days; grade 3 QT interval corrected for heart rate prolongation (>500 msec) persisting after correction of any reversible causes; and/or grade 3 aspartate aminotransferase (AST) and/or alanine aminotransferase (ALT) increase lasting ≤7 days. All grade 4 toxicities and a delay of >2 weeks in receiving the next scheduled cycle due to persistent treatment-related toxicities were considered DLTs. AEs meeting DLT criteria in the dose-expansion phase included grade 3 events of diarrhea, hypokalemia, and dysesthesia and grade 4 hypoxia. […] AEs were graded according to the National Cancer Institute Common Terminology Criteria for Adverse Events, version 4.03.

O=C(NCC(=O)N1CC[C@H](N[C@H]2CC[C@@](O)(c3ccc(-c4ncccn4)cn3)CC2)C1)c1cccc(C(F)(F)F)c1 [PF-04136309]
DLT (n = 17, first cycle (days 1 through 28)): 3 (17.6) n (%) | ALT increase, grade ≥3 (n = 17, treatment-related TEAE): 3 (17.6) n (%) | AST increase, grade ≥3 (n = 17, treatment-related TEAE): 3 (17.6) n (%) | Anemia, grade ≥3 (n = 17, treatment-related TEAE): 4 (23.5) n (%) | Fatigue, grade ≥3 (n = 17, treatment-related TEAE): 4 (23.5) n (%) | Leukopenia, grade ≥3 (n = 17, treatment-related TEAE): 2 (11.8) n (%) | Lymphopenia, grade ≥3 (n = 17, treatment-related TEAE): 4 (23.5) n (%) | Neutropenia, grade ≥3 (n = 17, treatment-related TEAE): 2 (11.8) n (%) | Abdominal pain, Grade 1 (all-causality SAE): 0 n (%) | Abdominal pain, Grade 2 (all-causality SAE): 0 n (%) | Abdominal pain, Grade 3 (all-causality SAE): 2 (11.8) n (%) | Abdominal pain, Grade 4 (all-causality SAE): 0 n (%) | Abdominal pain, Grade 5 (all-causality SAE): 0 n (%) | Abdominal pain, Total (all-causality SAE): 2 (11.8) n (%) | Any SAE, Grade 1 (all-causality SAE): 1 (5.9) n (%) | Any SAE, Grade 2 (all-causality SAE): 1 (5.9) n (%) | Any SAE, Grade 3 (all-causality SAE): 7 (41.2) n (%) | Any SAE, Grade 4 (all-causality SAE): 1 (5.9) n (%) | Any SAE, Grade 5 (all-causality SAE): 1 (5.9) n (%) | Any SAE, Total (all-causality SAE): 11 (64.7) n (%) | Chest pain, Grade 1 (all-causality SAE): 0 n (%) | Chest pain, Grade 2 (all-causality SAE): 0 n (%) | Chest pain, Grade 3 (all-causality SAE): 1 (5.9) n (%) | Chest pain, Grade 4 (all-causality SAE): 0 n (%) | Chest pain, Grade 5 (all-causality SAE): 0 n (%) | Chest pain, Total (all-causality SAE): 1 (5.9) n (%) | Dyspnea, Grade 1 (all-causality SAE): 0 n (%) | Dyspnea, Grade 2 (all-causality SAE): 0 n (%) | Dyspnea, Grade 3 (all-causality SAE): 1 (5.9) n (%) | Dyspnea, Grade 4 (all-causality SAE): 0 n (%) | Dyspnea, Grade 5 (all-causality SAE): 0 n (%) | Dyspnea, Total (all-causality SAE): 1 (5.9) n (%) | Episcleritis, Grade 1 (all-causality SAE): 0 n (%) | Episcleritis, Grade 2 (all-causality SAE): 1 (5.9) n (%) | Episcleritis, Grade 3 (all-causality SAE): 0 n (%) | Episcleritis, Grade 4 (all-causality SAE): 0 n (%) | Episcleritis, Grade 5 (all-causality SAE): 0 n (%) | Episcleritis, Total (all-causality SAE): 1 (5.9) n (%) | Hypoxia, Grade 1 (all-causality SAE): 0 n (%) | Hypoxia, Grade 2 (all-causality SAE): 0 n (%) | Hypoxia, Grade 3 (all-causality SAE): 0 n (%) | Hypoxia, Grade 4 (all-causality SAE): 1 (5.9) n (%) | Hypoxia, Grade 5 (all-causality SAE): 0 n (%) | Hypoxia, Total (all-causality SAE): 1 (5.9) n (%) | Klebsiella bacteremia, Grade 1 (all-causality SAE): 0 n (%) | Klebsiella bacteremia, Grade 2 (all-causality SAE): 0 n (%) | Klebsiella bacteremia, Grade 3 (all-causality SAE): 1 (5.9) n (%) | Klebsiella bacteremia, Grade 4 (all-causality SAE): 0 n (%) | Klebsiella bacteremia, Grade 5 (all-causality SAE): 0 n (%) | Klebsiella bacteremia, Total (all-causality SAE): 1 (5.9) n (%) | Liver abscess, Grade 1 (all-causality SAE): 0 n (%) | Liver abscess, Grade 2 (all-causality SAE): 0 n (%) | Liver abscess, Grade 3 (all-causality SAE): 1 (5.9) n (%) | Liver abscess, Grade 4 (all-causality SAE): 0 n (%) | Liver abscess, Grade 5 (all-causality SAE): 0 n (%) | Liver abscess, Total (all-causality SAE): 1 (5.9) n (%) | Musculoskeletal pain, Grade 1 (all-causality SAE): 0 n (%) | Musculoskeletal pain, Grade 2 (all-causality SAE): 0 n (%) | Musculoskeletal pain, Grade 3 (all-causality SAE): 1 (5.9) n (%) | Musculoskeletal pain, Grade 4 (all-causality SAE): 0 n (%) | Musculoskeletal pain, Grade 5 (all-causality SAE): 0 n (%) | Musculoskeletal pain, Total (all-causality SAE): 1 (5.9) n (%) | Neck pain, Grade 1 (all-causality SAE): 0 n (%) | Neck pain, Grade 2 (all-causality SAE): 0 n (%) | Neck pain, Grade 3 (all-causality SAE): 1 (5.9) n (%) | Neck pain, Grade 4 (all-causality SAE): 0 n (%) | Neck pain, Grade 5 (all-causality SAE): 0 n (%) | Neck pain, Total (all-causality SAE): 1 (5.9) n (%) | Pneumonia, Grade 1 (all-causality SAE): 0 n (%) | Pneumonia, Grade 2 (all-causality SAE): 0 n (%) | Pneumonia, Grade 3 (all-causality SAE): 0 n (%) | Pneumonia, Grade 4 (all-causality SAE): 0 n (%) | Pneumonia, Grade 5 (all-causality SAE): 1 (5.9) n (%) | Pneumonia, Total (all-causality SAE): 1 (5.9) n (%) | Pneumonitis, Grade 1 (all-causality SAE): 0 n (%) | Pneumonitis, Grade 2 (all-causality SAE): 0 n (%) | Pneumonitis, Grade 3 (all-causality SAE): 3 (17.6) n (%) | Pneumonitis, Grade 4 (all-causality SAE): 0 n (%) | Pneumonitis, Grade 5 (all-causality SAE): 0 n (%) | Pneumonitis, Total (all-causality SAE): 3 (17.6) n (%) | Pyrexia, Grade 1 (all-causality SAE): 1 (5.9) n (%) | Pyrexia, Grade 2 (all-causality SAE): 1 (5.9) n (%) | Pyrexia, Grade 3 (all-causality SAE): 0 n (%) | Pyrexia, Grade 4 (all-causality SAE): 0 n (%) | Pyrexia, Grade 5 (all-causality SAE): 0 n (%) | Pyrexia, Total (all-causality SAE): 2 (11.8) n (%) | Small intestinal obstruction, Grade 1 (all-causality SAE): 0 n (%) | Small intestinal obstruction, Grade 2 (all-causality SAE): 0 n (%) | Small intestinal obstruction, Grade 3 (all-causality SAE): 1 (5.9) n (%) | Small intestinal obstruction, Grade 4 (all-causality SAE): 0 n (%) | Small intestinal obstruction, Grade 5 (all-causality SAE): 0 n (%) | Small intestinal obstruction, Total (all-causality SAE): 1 (5.9) n (%) | ALT increase, Grade 1 (all-causality TEAE): 1 (5.9) n (%) | ALT increase, Grade 2 (all-causality TEAE): 2 (11.8) n (%) | ALT increase, Grade 3 (all-causality TEAE): 3 (17.6) n (%) | ALT increase, Grade 4 (all-causality TEAE): 1 (5.9) n (%) | ALT increase, Grade 5 (all-causality TEAE): 0 n (%) | ALT increase, Total (all-causality TEAE): 7 (41.2) n (%) | AST increase, Grade 1 (all-causality TEAE): 0 n (%) | AST increase, Grade 2 (all-causality TEAE): 1 (5.9) n (%) | AST increase, Grade 3 (all-causality TEAE): 5 (29.4) n (%) | AST increase, Grade 4 (all-causality TEAE): 0 n (%) | AST increase, Grade 5 (all-causality TEAE): 0 n (%) | AST increase, Total (all-causality TEAE): 6 (35.3) n (%) | Abdominal pain, Grade 1 (all-causality TEAE): 0 n (%) | Abdominal pain, Grade 2 (all-causality TEAE): 3 (17.6) n (%) | Abdominal pain, Grade 3 (all-causality TEAE): 3 (17.6) n (%) | Abdominal pain, Grade 4 (all-causality TEAE): 0 n (%) | Abdominal pain, Grade 5 (all-causality TEAE): 0 n (%) | Abdominal pain, Total (all-causality TEAE): 6 (35.3) n (%) | Alopecia, Grade 1 (all-causality TEAE): 7 (41.2) n (%) | Alopecia, Grade 2 (all-causality TEAE): 3 (17.6) n (%) | Alopecia, Grade 3 (all-causality TEAE): 0 n (%)
